Laboratory results from publication PMC7930822, “Phase I Trial to Evaluate the Tolerance, Pharmacokinetics and Efficacy of the Broad-Spectrum ErbB Family Inhibitor Larotinib Mesylate in Patients With Advanced Solid Tumors” (Frontiers in Pharmacology, 2021).
Counter-ions that a name gives are not always drawn. Like-named read-outs stand apart in the source and are kept apart here.

How the values were obtained:
beagle dogs = system: beagle dogs; set-up: method as in data not published; details: ref data not published, cited from earlier work
[1] = molecular target: Bruton’s tyrosine kinase (BTK); set-up: method as in data not published; details: ref data not published; cited from earlier work
Sprague–Dawley rats = system: Sprague–Dawley rats; set-up: method as in data not published; details: ref data not published, cited from earlier work
[2] = molecular target: receptor-interacting serine/threonine-protein kinase 2 (RIPK2); set-up: method as in data not published; details: ref data not published; cited from earlier work
[3] = system: patients with advanced solid tumors; assay: phase I safety and tolerance (NCI CTCAE version 4.03, DLTs); assay type: in vivo, human
Experimental: This was a phase I, single-center, open-label, dose-escalation study conducted at First Hospital of Jilin University, China (registration no.: ChiCTR-OPC-15007153 registered at http://www.chictr.org.cn). Larotinib mesylate hard capsules were produced and supplied by Sunshine Lake Pharma Co., Ltd (Guangdong Province, China) in different unit doses of […] under GMP condition. Seven dose levels were designed in the study: 50, 100, 150, 220, 300, 350, and 400 mg with administration stages labeled cycle 0, cycle 1, and subsequent treatment cycles. Patients received an oral single dose of larotinib mesylate after fasting during a 6-days cycle 0 to evaluate the tolerance and pharmacokinetic characteristics. After cycle 0, larotinib mesylate was continuously administered once daily for 28 days in cycle 1, and the tolerance and pharmacokinetic characteristics of multiple doses were evaluated (Figure 2). The patients who […] disease control (complete response [CR], partial response [PR], or stable disease [SD]) at the end of cycle one were permitted to participate in the subsequent 28-days treatment cycles until progressive disease (PD) or intolerance was observed.
We enrolled three to six patients for each dose level, with the goal of having at least three patients complete the cycle 0 and cycle 1 treatments. We made an enrollment regulation for the extra patients (>3) according to the study stage of the last enrolled patient in the present dose level: If the patient had finished cycle 1 day 22, extra screened patients would be enrolled to the next dose level; if not, the current dose level would be selected. If 1/3 of patients experienced a DLT in cycle 0 or cycle 1, expansion to six patients was required for the current dose level.
DLTs were observed according to the NCI CTCAE version 4.03 and defined as the emergence of any of the following drug-related AEs: hematological toxicity including Grade ≥3 neutropenia or thrombocytopenia and other Grade ≥4 hematological toxicity; nonhematological toxicities including Grade ≥2 atrioventricular block or renal injury; Grade ≥2 nausea, emesis, or diarrhea for ≥7 days despite optimal treatment; Grade ≥3 nausea, emesis, diarrhea, or rash despite supportive care; and alanine aminotransferase (ALT) or aspartate aminotransferase (AST) elevation by more than 5 times the upper limits of normal for ≥7 days and other Grade ≥3 nonhematological toxicities.
Safety was assessed according to the NCI CTCAE version 4.03 including AEs, vital signs, and results from 12-lead […], cardiac ultrasound, physical examination, ophthalmic testing, and clinical laboratory tests. Dosage adjustments could be applied from cycle 2 according to the severity of the toxicities. Drug administration would be suspended when drug-related AEs were graded at 3 or 4, and the original dose or reduction dose would be given if the AEs returned to baseline or Grade 1 (nonhematological toxicities)/grade 2 (hematological toxicities) within 14 days.

[4] = molecular target: interleukin-1 receptor-associated kinase 1 (IRAK1); set-up: method as in data not published; details: ref data not published; cited from earlier work
[5] = urine and fecal excretion recovery, cycle 0; assay type: in vivo; details: human, oral
Experimental: Blood samples (4 ml) for pharmacokinetic analyses were collected in tubes containing K2EDTA anticoagulant. Blood samples were centrifuged at 3,000 rpm for 10 min at 4°C and stored at –80°C until liquid chromatography-mass spectrophotometry (LC-MS/MS) analysis. Urine and fecal samples were collected only when patients were given the150-mg and 220-mg dose levels at sampling time intervals of 0–4, 4–8, 8–12, 12–24, 24–48, 48–72, 72–96 and 96–120 h in cycle 0.
Linear mixed effects model was used to explore the dose exposure relationships. Dose proportionality was concluded if the 95% confidence interval (CI) of the linear regression slope was completely contained within the decision interval (1 + ln (0.8)/ln (8)∼1 + ln (1.25)/ln (8)). For urine and fecal data, the accumulative excretion rates of larotinib and M5 were calculated.
Bioanalysis was performed at Frontage Company (Shanghai, China). Validated high-performance LC-MS/MS method was used to quantify the concentrations of larotinib and M5 in plasma, urine and feces samples. Protein precipitation was employed for plasma, urine and feces processing. Plasma larotinib and M5 concentrations were determined using appropriate calibration curves obtained from standards in the range of 0.5–1,000 ng/ml. The interassay precision of the analysis method were 4.2–5.4% for larotinib and 3.9–4.3% for M5. The interassay accuracy of the analysis method were 100.4–103.4% for larotinib and 102.2–102.9% for M5, respectively.

HER4 = system: HER4; set-up: method as in data not published; details: ref data not published; cited from earlier work

For `COc1cc2ncnc(Nc3ccc(F)c(Cl)c3)c2cc1OCCCN1C[C@@H]2OCCO[C@@H]2C1` [larotinib mesylate], the “lowest observed adverse effect level (LOAEL)” value (beagle dogs; daily administration) is given as 5 mg/kg, the “maximal tolerable dose (MTD)” value (beagle dogs) is given as 25 mg/kg and the IC50 [1] is given as 196 nM. The “no observed adverse effect level (NOAEL)” value (Sprague–Dawley rats; daily administration) was 10 mg/kg, the “maximal tolerable dose (MTD)” value (Sprague–Dawley rats) was 20 mg/kg and the IC50 [2] was 26.6 nM. The MTD in patients ([3]; 50–400 mg/d oral) was “no MTD established”, the “Grade 3 drug-related decreased lymphocytes” value ([3]; human, in vivo) was 12% and the “Grade 3 drug-related diarrhea” value ([3]; human, in vivo) was 4%. The “Grade 3 drug-related nausea” value ([3]; human, in vivo) was 4%, the “drug-related acne-like rash, incidence” value ([3]; human, in vivo) was 68.0% and the “drug-related anemia, incidence” value ([3]; human, in vivo) was 48.0%. The “drug-related decreased lymphocyte percentage, incidence” value ([3]; human, in vivo) was 40.0%, the “drug-related diarrhea, incidence” value ([3]; human, in vivo) was 48.0% and the “drug-related hand-foot skin reaction, incidence” value ([3]; human, in vivo) was 44.0%. The “drug-related hypoalbuminemia, incidence” value ([3]; human, in vivo) was 32.0%, the “drug-related nausea, incidence” value ([3]; human, in vivo) was 36.0% and the “drug-related paronychia, incidence” value ([3]; human, in vivo) was 48.0%. The “drug-related stomatitis, incidence” value ([3]; human, in vivo) was 44.0%, the “drug-related weight loss, incidence” value ([3]; human, in vivo) was 32.0% and the “patients with Grade 3 drug-related AEs” value ([3]; human, in vivo) was 20%. For the same compound, the “patients with at least one drug-related AE” value ([3]; human, in vivo) was 96%, the IC50 [4] was 167 nM and the dose excreted ([5]; feces, 150-mg group, read-out: 0–120 h excretion recovery percentage in feces) was 6.01%. The dose excreted ([5]; feces, 220-mg group, read-out: 0–120 h excretion recovery percentage in feces) was 7.89%, the dose excreted ([5]; 150-mg group, urine plus feces, read-out: 0–120 h excretion recovery percentage, total) was 7.41% and the dose excreted ([5]; 220-mg group, urine plus feces, read-out: 0–120 h excretion recovery percentage, total) was 9.25%. The dose excreted ([5]; urine, 150-mg group, read-out: 0–120 h excretion recovery percentage in urine) was 1.4%, the dose excreted ([5]; urine, 220-mg group, read-out: 0–120 h excretion recovery percentage in urine) was 1.36% and the IC50 (HER4) was 84 nM.
